In patent EP0314828A1, “4-Phenyl-1,2,3,4-tetrahydroisoquinolins as ulcer agents” (S O "PHARMACHIM", priority 1987, dated 1989):
Like-named read-outs stand apart in the source and are kept apart here.

Key:
[1] = test system: durch Reserpin hervorgerufenen Geschwüren; assay: reserpine-induced ulcer model in rats; assay type: in vivo, Ratten; set-up: Ulkusindex: scale not given here; settings: for Prozentsatz der Unterdrückung des Ulkusindexes / Ulkusindex: Table 6, rats; for Ulkusindex: Kontrolle 44,58
Procedure: Die Versuche werden mit 180 weißen, männlichen Ratten - Rasse Wistar - mit einem Gewicht von 180 bis 270 g durchgeführt. Die Tiere werden 48 Stunden nicht gefüttert bei freiem Zugang zu Wasserquellen. Die Geschwüre wurden hervorgerufen durch die Injektion von 5 mg/kg Reserpin. Eine halbe Stunde vor Einführung des Reserpins erhalten die Tiere peroral verschiedene Dosen von Ia, die Kontrolltiere Wasser, 24 Stunden nach Einführung des Reserpins werden die Tiere mit Thiopental getötet. Die destruktiven Magenveränderungen werden makroskopisch bestimmt. Es wurden Vergleichsuntersuchungen mit Cimetidin und Ranitidin (Tabelle 6) durchgeführt.

Geschwüren nach Shei = assay: ulcer model according to Shei (ligature) in rats; assay type: in vivo, Ratten; settings: Table 7, Kontrolle 16
Source text: Die Versuche wurden mit weißen, männlichen Ratten, Rasse Wistar, mit einem Gewicht von 180 bis 270 g durchgeführt. Die Tiere werden 48 Stunden nicht gefüttert bei freiem Zugang zu Wasserquellen. 5 Stunden nach der Ligatur werden die Tiere getötet, die Mägen werden herausgenommen und die destruktiven Veränderungen makroskopisch untersucht. Als Vergleichspräparate wurden Cimetidin und Ranitidin angewandt (Tabelle 7). TABELLE 7

[2] = test system: Wasser-Immersions-Streßgeschwüren; assay: water-immersion stress ulcer model in rats, oral administration; assay type: in vivo, Ratten; set-up: Ulkusindex: scale not given here; settings: for Prozent der Unterdrückung des Ulkusindexes / Ulkusindex / Prozentsatz der Unterdrückung des Ulkusindexes: rats
Source text: Die Versuche werden mit 280 weißen männlichen Ratten - Wistar-Rasse - mit einem Gewicht von 150 bis 200 g nach der Takagi K., Ishii Y, Arzneim. Forsch. Drug.Res. 17, 1544 (1967) Methode durchgeführt und entsprechend modifiziert. Achtzehn Stunden vor dem Versuch werden die Tiere nicht gefüttert bei freiem Zugang zu Wasserquellen. Die Verbindungen der allgemeinen Formel I werden oral verabreicht; anschließend werden die Ratten, zur Verhinderung jeglicher Bewegung, auf dem Rücken an einer Unterlage angebunden, untereinander isoliert und in bis auf 17 - 18° C temperiertes Wasser getaucht. Fünf Stunden später wurden die Tiere getötet, ihre Mägen herausgenommen und makroskopische destruktive Änderungen festgestellt.
Die Prüfmethode ist dieselbe wie in Beispiel 1.

acute toxicity in mice = settings: mouse, in vivo, Mäusen, read-out: LD₅₀
[3] = test system: durch Indometacin hervorgerufenen Geschwüren; assay: indometacin-induced ulcer model in rats; assay type: in vivo, Ratten
Procedure: Die Versuche werden mit 50 weißen, männlichen Ratten der Rasse Wistar mit einem Gewicht von 170 bis 200 g durchgeführt. Achtzehn Stunden vor dem Versuch werden die Tiere nicht gefüttert bei freiem Zugang zu Wasserquellen. Das Indometacin wird in einer Dosis von 35 mg/kg intraperitoneal eine halbe Stunde nach der peroralen Verabreichung der Verbindung Ia, eingeführt. In der fünften Stunde werden die Tiere getötet, die Mägen werden herausgenommen und es werden makroskopisch die destruktiven Veränderungen bestimmt. TABELLE 5

Streßgeschwüren = settings: experimental models of stress ulcers in mice; M. Bickel, Arzn.Forsch. 30 (1), 69, 1980; cited from earlier work
sauere Magensekret = settings: in contrast to Histamin-H₂-Antagonisten; M. Bickel, Arzn.Forsch. 30 (1), 69, 1980; cited from earlier work
[4] = Table 1, peroral, Dosis 1 mg/kg, 5 h immersion
[5] = Table 1, peroral, Dosis 1 mg/kg, 5 h immersion, Kontrolle 55,1

CCOC(=O)Nc1cccc2c1CN(C)CC2c1ccc(Cl)cc1 (racemic) [Ia, 2-Methyl-4-/4-Chlorphenyl/-8-Ethoxykarbonylamino-1,2,3,4-tetrahydroisochinolin]
Prozentsatz der Unterdrückung des Ulkusindexes ([1]; peroral, 1 mg/kg): 47,2 Prozent
Ulkusindex ([1]; peroral, 1 mg/kg): 23,5
Prozentsatz der Unterdrückung des Ulkusindexes ([1]; peroral, 2 mg/kg): 57,37 Prozent
Ulkusindex ([1]; peroral, 2 mg/kg): 19,00
Prozentsatz der Unterdrückung des Ulkusindexes ([1]; peroral, 3 mg/kg): 41,00 Prozent
Ulkusindex ([1]; peroral, 3 mg/kg): 26,00
Prozentsatz der Unterdrückung des Ulkusindexes ([1]; peroral, 0,250 mg/kg): 6,9 Prozent
Ulkusindex ([1]; peroral, 0,250 mg/kg, Reserpin 5 mg/kg): 41,5
Prozentsatz der Unterdrückung des Ulkusindexes ([1]; peroral, 0,500 mg/kg): 17 Prozent
Ulkusindex ([1]; peroral, 0,500 mg/kg): 37
Prozentsatz der Unterdrückung des Ulkusindexes ([1]; peroral, 1,5 mg/kg): 52,15 Prozent
Ulkusindex ([1]; peroral, 1,5 mg/kg): 21,33
Ulkuseffekt gegenüber Vergleichspräparaten Cimetidin und Ranitidin ([1]; maximal effect of Ia at 1,5 and 2 mg/kg vs Cimetidin 100 mg/kg and Ranitidin 30 mg/kg): mehrfach höher
Ulkusindex (Geschwüren nach Shei; rats, 0,100 mg/kg, 5 h after ligature): 22
Ulkusindex (Geschwüren nach Shei; rats, 0,500 mg/kg): 13
Ulkusindex (Geschwüren nach Shei; rats, 1,5 mg/kg): 7,13
Ulkusindex (Geschwüren nach Shei; rats, 1,000 mg/kg): 8,25
Prozent der Unterdrückung des Ulkusindexes [2, 4]: 92,1 Prozent
Ulkusindex [2, 5]: 4,33
Prozent der Unterdrückung des Ulkusindexes ([2]; Table 3, oral, 0,100 mg/kg): 46 Prozent
Ulkusindex ([2]; Table 3, oral, 0,100 mg/kg, Kontrolle 76.6): 41,3
Prozent der Unterdrückung des Ulkusindexes ([2]; Table 3, oral, 0,250 mg/kg): 57,3 Prozent
Ulkusindex ([2]; Table 3, oral, 0,250 mg/kg, Kontrolle 76.6): 32,7
Prozent der Unterdrückung des Ulkusindexes ([2]; Table 3, oral, 0,500 mg/kg): 75,5 Prozent
Ulkusindex ([2]; Table 3, oral, 0,500 mg/kg, Kontrolle 76.6): 18,8
Prozent der Unterdrückung des Ulkusindexes ([2]; Table 3, oral, 1,000 mg/kg): 85,00 Prozent
Ulkusindex ([2]; Table 3, oral, 1,000 mg/kg, Kontrolle 76.6): 11,3
höhere Ulkusaktivität im Vergleich zu Ranitidin ([2]; ratio of doses for maximal suppression: Ia 1 mg/kg vs Ranitidin 30 mg/kg (Tables 3 and 4)): 30 fach
LD50 (acute toxicity in mice; ip, intraperitoneal): 125 mg/kg
LD50 (acute toxicity in mice; oral): 250 mg/kg
Prozentsatz der Unterdrückung des Ulkusindexes ([3]; Table 5, peroral, 0,050 mg/kg): 37 Prozent
Ulkusindex ([3]; Table 5, peroral, 0,050 mg/kg, Indometacin 35 mg/kg i.p., Kontrolle 19,5): 12,2
Prozentsatz der Unterdrückung des Ulkusindexes ([3]; Table 5, peroral, 0,250 mg/kg): 40,6 Prozent
Ulkusindex ([3]; Table 5, peroral, 0,250 mg/kg, Kontrolle 19,5): 10,4
Prozentsatz der Unterdrückung des Ulkusindexes ([3]; Table 5, peroral, 0,500 mg/kg): 52 Prozent
Ulkusindex ([3]; Table 5, peroral, 0,500 mg/kg, Kontrolle 19,5): 9,3
Prozentsatz der Unterdrückung des Ulkusindexes ([3]; Table 5, peroral, 1,100 mg/kg): 78 Prozent
Ulkusindex ([3]; Table 5, peroral, 1,100 mg/kg, Kontrolle 19,5): 4,2
Unterdrückungsprozentsatz ([3]; peroral, minimal dose printed as 0,1 mg/kg): 37
Ulkusindex ([3]; peroral, minimal dose printed as 0,1 mg/kg, Kontrolltiere 19,5): 12,2

CN1Cc2c(N)cccc2C(c2ccc(Cl)cc2)C1 (stereo not drawn) [Id, 2-Methyl-4-/4-chlorphenyl/-8-amino-1,2,3,4-tetrahydroisochinolin]
Prozent der Unterdrückung des Ulkusindexes [2, 4]: 86,40 Prozent
Ulkusindex [2, 5]: 7,50

CCOC(=O)Nc1cccc2c1CN(C)CC2c1ccccc1 (racemic) [Ie, 2-Methyl-4-phenyl-8-ethoxycarbonylamino-1,2,3,4-tetrahydroisochinolin]
Prozent der Unterdrückung des Ulkusindexes [2, 4]: 40,60 Prozent
Ulkusindex [2, 5]: 32,70

CCOC(=O)Nc1cccc2c1CN(C)CC2c1ccccc1 (racemic) [If, /+/-2-Methyl-4-phenyl-8-ethoxycarbonylamino-1,2,3,4-tetrahydroisochinolin]
Prozent der Unterdrückung des Ulkusindexes [2, 4]: 36,30 Prozent
Ulkusindex [2, 5]: 35,10

CN1Cc2c(N)cccc2C(c2ccccc2)C1.O=C(O)/C=C\C(=O)O (stereo not drawn) [Alival, 2-Methyl-4-phenyl-8-amino-1,2,3,4-tetrahydroisochinolin-saueres-Maleat]
Antigeschwüreffekt (Streßgeschwüren): einen Antigeschwüreffekt aufweist
Inhibierung des saueren Magensekrets (sauere Magensekret): nicht inhibiert

CCOC(=O)Nc1cccc2c1CN(C)CC2c1ccc(Cl)cc1.O=C(O)/C=C\C(=O)O (racemic) [Ib, /+/-2-Methyl-4-/4-chlorphenyl/8-ethoxycarbonylamino-1,2,3,4-tetrahydroisochinolin-saures Maleat]
Ulkusindex [2, 5]: 7,00
Aktivität im Vergleich mit /+/(Ib) ([2]; Table 1 data, 1 mg/kg peroral): vierfach niedrigere Aktivität

CNC(=NCCSCc1nc[nH]c1C)NC#N [Cimetidin, N-Cyan-N-methyl-N-2/ 4-methyl-imidazolin/methylthio-ethylguanidinium, reference compound]
Prozentsatz der Unterdrückung des Ulkusindexes ([1]; 100 mg/kg): 38,00 Prozent
Ulkusindex ([1]; 100 mg/kg): 27,62
Ulkusindex (Geschwüren nach Shei; rats, 100 mg/kg): 12,2

CCOC(=O)Nc1cccc2c1CN(C)CC2c1ccc(Cl)cc1.O=C(O)/C=C\C(=O)O (stereo not drawn) [Ic, /-/-2-Methyl-4-/4-chlorphenyl/8-ethoxycarbonylamino-1,2,3,4-tetrahydroisochinolin-saures Maleat]
Prozent der Unterdrückung des Ulkusindexes [2, 4]: 28,20 Prozent
Ulkusindex [2, 5]: 39,58

CN1Cc2c(Cl)cccc2C(c2ccccc2)C1 (stereo not drawn) [Ih, 2-Methyl-4-phenyl-8-chlor-1,2,3,4-tetrahydroisochinolin]
Prozent der Unterdrückung des Ulkusindexes [2, 4]: 36,60 Prozent
Ulkusindex [2, 5]: 34,90

CNC(=C[N+](=O)[O-])NCCSCc1ccc(CN(C)C)o1 [Ranitidin, N-/5-Dimethylamino-methyl/-2-furanil-methyl-thioethyl-/N-methyl-2-nitro/-1,1-ethan-diamin, reference compound]
Prozentsatz der Unterdrückung des Ulkusindexes ([1]; 30 mg/kg): 48,40 Prozent
Ulkusindex ([1]; 30 mg/kg): 23,00
Ulkusindex (Geschwüren nach Shei; rats, 30 mg/kg): 9
Prozentsatz der Unterdrückung des Ulkusindexes ([2]; Table 4, peroral, 0,5 mg/kg): ~27 Prozent
Ulkusindex ([2]; Table 4, peroral, 0,5 mg/kg, Kontrolle 44,3): 32,3
Prozentsatz der Unterdrückung des Ulkusindexes ([2]; Table 4, peroral, 1 mg/kg): 39,27 Prozent
Ulkusindex ([2]; Table 4, peroral, 1 mg/kg, Kontrolle 44,3): 26,9
Prozentsatz der Unterdrückung des Ulkusindexes ([2]; Table 4, peroral, 3 mg/kg): 35,89 Prozent
Ulkusindex ([2]; Table 4, peroral, 3 mg/kg, Kontrolle 44,3): 28,4
Prozentsatz der Unterdrückung des Ulkusindexes ([2]; Table 4, peroral, 10 mg/kg): 48,98 Prozent
Ulkusindex ([2]; Table 4, peroral, 10 mg/kg, Kontrolle 44,3): 22,6
Prozentsatz der Unterdrückung des Ulkusindexes ([2]; Table 4, peroral, 30 mg/kg): 61,62 Prozent
Ulkusindex ([2]; Table 4, peroral, 30 mg/kg, Kontrolle 44,3): 17,0

CCOC(=O)Nc1cccc2c1CN(C)CC2c1ccccc1.O=C(O)/C=C\C(=O)O (stereo not drawn) [Ig, /-/-2-Methyl-4-phenyl-8-ethoxycarbonylamino-1,2,3,4-tetrahydroisochinolin-saures Maleat]
Prozent der Unterdrückung des Ulkusindexes [2, 4]: 48,00 Prozent
Ulkusindex [2, 5]: 28,60
